Patent US20230203142A1, “TREATMENT OF METABOLIC DISORDERS THROUGH THE TARGETING OF A NOVEL CIRCULATING HORMONE COMPLEX” (The President and Fellows of Harvard College, priority 2020, published 2023)

Columns and labels:
INS1 cells [1] = assay: Glucose-stimulated insulin secretion (GSIS), INS1 cells; format: cell-based, rat
Protocol: This finding was recapitulated in both primary human islets from multiple non-diabetic donors (FIG. 6B), as well as INS1 cells (FIG. 6C). Human islets from review board approved healthy donors were isolated using the Edmonton protocol and provided by the IsletCore and Clinical Islet Laboratory (University of Alberta, Canada). Donors with a BMI<25 and HbA1c<6.0% were used for experiments. Islets were hand-picked three times and cultured at 37° C. in RPMI media with 10% FBS and 1% Penicillin/Streptomycin overnight before use. For INS1 cells, cells were plated at 8000 cells/well in 96-well plates and incubated overnight prior to experimentation. Insulin secretion assay was performed as above using 200 μl/well for each treatment. Cells were lysed using 80 μl ultrapure water and flash freezing. For siRNA experiments, INS1 cells were allowed to reach confluency before transfection of siRNA (Horizon Discovery; L-090381-02-0005) using Lipofectamine 3000 (Thermo Fischer; L3000015) according to manufacturer protocol for 48 hours prior to assays.
As additional controls, it was explored whether lipid binding was required for FABP4 action. […] FABP4 inhibitor studies were performed using BMS-309403 (10 nM; Sigma #BM0015).
To further elucidate the role of purinergic receptors in this signaling process, a potent and selective P2Y1 inhibitor, MRS2179 (Baurand et al., 2001) was utilized. Cells were pre-treated for P2Y1 inhibitor (100 nM; MRS2179, Tocris #0900) during the pre-incubation period.
To confirm activity of this inhibitor, INS1 cells were treated with increasing concentrations of ADP in the presence or absence of MRS2179. […] This supports the hypothesis that the ADP produced by the NDPK-ADK complex signals through the P2Y1 receptor, treatment of INS1 cells with MRS2179 abolished the increase in GSIS associated with addition of NDPK-ADK, with no effect in the presence of NDPK-ADK/FABP4, consistent with the receptor being inhibited by ATP under these conditions (FIG. 6L). […] Treatment of primary mouse islets with H118N NDPK and WT ADK had no effect on GSIS, confirming the requirement of NDPK kinase activity for the biology (FIG. 6N). Additionally, it was modeled that the inhibitory effect of the NDPK-ADK/FABP4 complex on GSIS is dependent on the production of ATP by ADK, as activated by the presence of FABP4. To test this, an ADK inhibitor was utilized. Cells were pre-treated with ADK inhibitor (2 nM; Santa Cruz #sc-202900) during the pre-incubation period.

INS1 cells [2] = assay: Cytosolic calcium flux, Fura-2 AM imaging; details: 20 mM glucose
Protocol: Cells were pre-treated with P2Y1 activator (0.5 nM; MRS2365 Tocris #2157) during the pre-incubation period. Cells were stimulated with ATP (5 μM; Promega #V915A) or ADP (2.5 μM; Promega #V916A) acutely with the addition of LG and HG KRB during the serial stimulation. Cells were treated with 100 ng/ml recombinant human FABP4 (produced in-house), 200 ng/ml recombinant human ADK (Novus Biologicals, product number NBP1-44382 or R&D Systems, product number 8024-AK-025), or 100 ng/ml recombinant human NDPK-A (Acro Biosystems, product number NM1-H5147) where indicated, for the pre-incubation period, as well as during the glucose stimulation.
Briefly, INS1 cells were plated in imaging disks at 5000 cells/dish and cultured in standard media overnight. Cells were washed with PBS, and incubated in imaging buffer without glucose, with or without calcium containing Fura-2 AM (2 mM; ThermoFisher F1201) for 30 minutes at 37° C. Cells were washed twice with fresh PBS, and placed in lml imaging buffer. Calcium flux was evaluated with the addition of 20 mM glucose, 30 mM KCl, or 1 μM Thapsigargin. Extracellular calcium was added at 1.5 mM. Calcium flux measurements were performed using an epifluorescence system coupled to a Ti-S/L100 inverted microscope L100 with fluorescent light source (X-Cite 120LED System) equipped with Lambda DG-4 Plus for UV ratiometric probes. Excitations at 340 nm and 380 nm were used and an emission of 510 nm. Analysis was performed using ImageJ software. Calcium flux was measured from 50 cells per coverslip.

CA33 (a-Ab) = assay: MST epitope mapping: nested NDPK-A peptides with a-Ab; format: binding
Protocol: To define the binding site of a-Ab on NDPK, a nested series of peptides were generated covering human NDPK-A and interaction of each peptide with a-Ab was evaluated by Microscale Thermophoresis (MST) (FIG. 4D). MST is a technology for the interaction analysis of biomolecules. MST is the directed movement of particles in a microscopic temperature gradient. Any change of the hydration shell of biomolecules due to changes in their structure/conformation results in a relative change of the movement along the temperature gradient and is used to determine binding affinities. MST allows measurement of interactions directly in solution without the need of immobilization to a surface (immobilization-free technology).

primary mouse islets = assay: Glucose-stimulated insulin secretion (GSIS), mouse islets; format: cell-based; details: primary / WT mouse islets
Protocol: Primary islet isolation from mice was performed as previously described (Batchuluun et al., 2018; Prentice et al., 2014) and GSIS was assessed following acute treatment with NDPK-ADK in the presence or absence of FABP4. Insulin secretion assays were performed as previously described (Prentice et al., 2014). For primary islets, 20 islets were hand-picked into 1.5 ml tubes, washed twice with Krebs Ringer Buffer (KRB) without glucose, and pre-incubated in 500 μl low glucose (LG; 2.8 mM) KRB for 1 hour at 37° C. KRB was then removed and 250 μl of fresh LG KRB added. Islets were incubated for 20 minutes at 37° C. Supernatant was collected and 250 μl high glucose (HG; 16.7 mM) KRB added. Islets were incubated for 20 minutes at 37° C. In conditions where KCl was used, HG KRB was collected, and 250 μl KC1 (16.7 mM glucose, 30 mM KCl) KRB added. Islets were incubated for 20 minutes at 37° C., and supernatant collected. Following the stimulation protocol, cells were lysed in 100 μl acid ethanol (70% ethanol, 1% HCl in water) and stored at 4° C. overnight. Samples were evaporated using a SpeedVac until dried, and resuspended in 60 μl ultrapure water. DNA was quantified by Nanodrop (ThermoFisher, USA). Insulin from supernatant was quantified using insulin HTRF (Insulin Ultrasensitive Assay kit 62IN2PEH; Cisbio, USA).

recombinant NDPK = target: T1, recombinant NDPK (Homo sapiens, UniProt P15531, H118N); assay: Recombinant kinase activity assay, NDPK (ADP-Glo/Kinase-Glo); format: biochemical; details: kinase activity of NDPK mutant
T1 construct: purchased Acro Biosystems NM1-H5147
T1 sequence (P15531 whole entry H118N): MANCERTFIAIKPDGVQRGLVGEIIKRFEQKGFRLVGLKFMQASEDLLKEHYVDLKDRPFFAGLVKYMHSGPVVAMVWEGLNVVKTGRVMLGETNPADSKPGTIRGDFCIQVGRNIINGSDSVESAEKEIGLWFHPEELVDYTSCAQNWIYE
Protocol: (§1) An on-bead kinase assay was developed to measure the activity of endogenous NDPK and ADK pulled down from serum using a-Ab or c-Ab conjugated beads. Both NDPK and ADK are bi-directional kinases that will produce ATP or ADP depending on the substrates provided (FIGS. 4B-C). Kinase activity assays were performed in 384-well plates in reaction buffer (PBS with 0.1% BSA, 0.01% F-127, 5 mM MgCl2). Experiments with recombinant proteins were performed at final concentrations of 40 μg/ml for ADK and FABP4, and 20 ug/ml for NDPK, and a reaction volume of 10 μl. Antibodies were used at a final concentration of 80 ug/ml. […] Proteins and substrates were incubated for 1 hr at room temperature, and ADP and ATP production were monitored using ADP-Glo and Kinase-Glo kits, respectively, according the manufacturer instructions (V6930 and V6711 Promega, USA). Luminescence was quantified using a SpectraMax Paradigm plate reader 30 min after the addition of substrate. Consistent with the MS results, ADK activity, as measured by generation of ATP, was specifically observed in samples pulled down with a-Ab but not c-Ab (FIG. 5A). […] To test this possibility, the ATP and ADP generating activity of recombinant ADK was assessed in the presence of the proposed complex components.

recombinant ADK = target: T2, recombinant ADK (Homo sapiens, UniProt P55263); assay: Recombinant kinase activity assay, ADK (Kinase-Glo); format: biochemical; details: recombinant ADK plus the added component
T2 construct: purchased Novus Biologicals or R&D Systems NBP1-44382 or 8024-AK-025
T2 sequence (P55263 whole entry): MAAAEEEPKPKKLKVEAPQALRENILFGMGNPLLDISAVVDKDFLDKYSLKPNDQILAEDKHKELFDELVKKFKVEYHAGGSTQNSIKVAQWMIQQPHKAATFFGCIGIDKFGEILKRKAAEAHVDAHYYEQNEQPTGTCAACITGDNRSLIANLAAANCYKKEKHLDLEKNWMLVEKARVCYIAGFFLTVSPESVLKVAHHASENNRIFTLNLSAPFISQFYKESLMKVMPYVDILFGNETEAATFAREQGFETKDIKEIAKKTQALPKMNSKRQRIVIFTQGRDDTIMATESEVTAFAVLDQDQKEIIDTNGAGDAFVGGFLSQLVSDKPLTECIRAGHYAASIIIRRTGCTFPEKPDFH
Protocol: as §1

Nc1ncnc2c1ncn2[C@@H]1O[C@H](COP(=O)(O)OP(=O)(O)O)[C@@H](O)[C@H]1O [ADP]
GSIS in the presence of the NDPK-ADK/FABP4 complex (INS1 cells [1]): potentiated | insulin secretion / GSIS with exogenous nucleotide (INS1 cells [1]): potentiated

Nc1ncnc2c1ncn2[C@@H]1O[C@H](COP(=O)(O)OP(=O)(O)OP(=O)(O)O)[C@@H](O)[C@H]1O [ATP]
increase in GSIS with addition of NDPK-ADK (INS1 cells [1]): blunted | insulin secretion / GSIS with exogenous nucleotide (INS1 cells [1]): suppressed

Nc1ncnc2c1ncn2[C@@H]1O[C@H](COP(=O)(O)OP(=O)(O)OP(O)(O)=S)[C@@H](O)[C@H]1O [ATPgS]
increase in GSIS with addition of NDPK-ADK (INS1 cells [1]): more pronounced

CCc1c(-c2ccccc2)c(-c2ccccc2)nn1-c1ccccc1-c1cccc(OCC(=O)O)c1 [BMS-309403]
effect on suppressing NDPK-ADK-potentiated GSIS as WT recombinant FABP4 (INS1 cells [1]; FABP4 mutant or FABP4 treated with inhibitor): same effect

CNc1ncnc2c1ncn2[C@H]1C[C@H](OP(=O)(O)O)[C@@H](COP(=O)(O)O)O1 [MRS2179]
GSIS in the presence of the NDPK-ADK/FABP4 complex (INS1 cells [1]): no effect | increase in GSIS with addition of NDPK-ADK (INS1 cells [1]): abolished | ADP-stimulated increase in GSIS (INS1 cells [1]; increasing concentrations of ADP): completely inhibited

CSc1nc(N)c2ncn([C@H]3[C@H](O)[C@H](O)[C@]4(COP(=O)(O)OP(=O)(O)O)C[C@H]34)c2n1 [MRS2365, reference compound]
extracellular calcium influx in response to glucose (INS1 cells [2]): rescued

GPVVAMVWEGLNVVK [Peptide 8]
binding with a-Ab (in words) (CA33 (a-Ab)): High affinity binding

H118N NDPK: kinase-dead H118N NDPK mutant
GSIS (primary mouse islets): no effect | capacity to generate ADP (recombinant NDPK): no capacity

IKPDGVQRGLVGEII [Peptide 2]
binding with a-Ab (in words) (CA33 (a-Ab)): Low affinity binding

NDPK: recombinant human NDPK-A (Acro Biosystems)
ADK activity to generate ATP (recombinant ADK): no effect

VGEIIKRFEQKGFRL [Peptide 3]
binding with a-Ab (in words) (CA33 (a-Ab)): Low affinity binding
